≈ marks a conversion by molar mass, not a printed value. Blank lines part the entries; values can stand above or below the molecule they belong to.
Tests used:
[1] = Half life in mouse at 400 mg/kg, ip; format: ADME, organism-based; conditions: in vivo
[2] = Solubility of compound in HCl at pH 1.2 at 37 degreeC measured after 24 hrs; format: physicochemical
[3] = AUC in mouse at 400 mg/kg, ip; format: ADME, organism-based; parameters: dose 400 mg/kg, route ip; conditions: in vivo
[4] = system: N2a; assay: Antialzheimer activity in mouse N2a cells overexpressing hAPP assessed as reduction in human amyloid beta 40 level at 1 to 5 uM incubated for 24 hrs by ELISA relative to control; format: functional; parameters: scale not given: the % may be the effect or the level left; conditions: dose 1-5 µM
[5] = biological target: T1, Protein deacetylase HDAC6 (Homo sapiens, UniProt Q9UBN7); assay: Inhibition of HDAC6 (unknown origin)
T1 sequence (Q9UBN7 whole entry): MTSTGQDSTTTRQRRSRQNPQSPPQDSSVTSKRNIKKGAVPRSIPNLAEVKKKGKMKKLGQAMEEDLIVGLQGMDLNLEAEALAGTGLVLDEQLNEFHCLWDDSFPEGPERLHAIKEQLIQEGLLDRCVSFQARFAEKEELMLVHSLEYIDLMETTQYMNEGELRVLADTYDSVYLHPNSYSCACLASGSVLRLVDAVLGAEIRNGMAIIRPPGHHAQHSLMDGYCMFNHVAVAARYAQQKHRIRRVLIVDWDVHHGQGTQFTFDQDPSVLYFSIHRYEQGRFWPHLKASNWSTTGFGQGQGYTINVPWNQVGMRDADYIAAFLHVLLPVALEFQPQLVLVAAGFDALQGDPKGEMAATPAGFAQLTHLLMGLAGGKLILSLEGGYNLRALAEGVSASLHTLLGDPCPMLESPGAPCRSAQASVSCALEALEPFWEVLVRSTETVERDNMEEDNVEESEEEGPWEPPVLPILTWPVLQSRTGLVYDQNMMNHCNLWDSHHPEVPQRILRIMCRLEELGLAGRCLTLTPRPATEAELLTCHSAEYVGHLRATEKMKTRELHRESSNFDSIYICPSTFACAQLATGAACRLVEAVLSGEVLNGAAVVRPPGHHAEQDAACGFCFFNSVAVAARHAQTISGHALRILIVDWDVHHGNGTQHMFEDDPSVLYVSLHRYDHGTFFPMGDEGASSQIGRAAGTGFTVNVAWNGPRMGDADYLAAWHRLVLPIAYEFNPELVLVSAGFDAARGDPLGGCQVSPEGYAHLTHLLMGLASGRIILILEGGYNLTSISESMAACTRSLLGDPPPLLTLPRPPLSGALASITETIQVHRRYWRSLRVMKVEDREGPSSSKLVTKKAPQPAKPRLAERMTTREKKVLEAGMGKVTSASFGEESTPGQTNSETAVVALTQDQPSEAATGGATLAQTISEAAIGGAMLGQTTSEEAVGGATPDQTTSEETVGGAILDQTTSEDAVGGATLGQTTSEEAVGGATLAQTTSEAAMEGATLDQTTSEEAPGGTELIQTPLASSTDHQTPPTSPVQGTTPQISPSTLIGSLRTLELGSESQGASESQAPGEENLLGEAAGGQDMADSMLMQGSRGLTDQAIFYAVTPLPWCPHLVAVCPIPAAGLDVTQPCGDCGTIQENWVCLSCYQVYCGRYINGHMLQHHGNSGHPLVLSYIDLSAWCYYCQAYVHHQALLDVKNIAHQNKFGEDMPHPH

[6] = Apparent permeability across apical to basolateral side in human Caco-2 cells; format: ADME, cell-based
[7] = Stability in rat liver microsomes assessed as half life; format: ADME, Microsome
[8] = Stability in rat plasma assessed as half life; format: ADME, cell-free
[9] = Antialzheimer activity in rat Primary cortical neurons assessed as reduction in amyloid beta 40 level incubated for 24 hrs by ELISA relative to control; format: functional, Cortical neurone; parameters: scale not given: the % may be the effect or the level left
[10] = Apparent permeability across basolateral to apical side in human Caco-2 cells; format: ADME, cell-based
[11] = Clearance in mouse at 400 mg/kg, ip; format: ADME, organism-based; conditions: in vivo
[12] = Tmax in mouse at 400 mg/kg, ip; format: ADME, organism-based; conditions: in vivo
[13] = Stability in human plasma assessed as half life; format: ADME, cell-free
[14] = system: N2a; assay: Antialzheimer activity in mouse N2a cells overexpressing hAPP assessed as reduction in human amyloid beta 42 level at 1 to 5 uM incubated for 24 hrs by ELISA relative to control; format: functional; parameters: scale not given: the % may be the effect or the level left; conditions: dose 1-5 µM
[15] = Stability in human liver microsomes assessed as half life; format: ADME, Microsome
[16] = Solubility of compound in PBS at pH 7.4 at 37 degreeC measured after 24 hrs; format: physicochemical
[17] = Lipophilicity, logD of the compound at 37 degreeC; format: physicochemical; conditions: octanol/water
[18] = Stability in dog liver microsomes assessed as half life; format: ADME, Canis lupus familiaris, Microsome
[19] = Stability in porcine plasma assessed as half life; format: ADME, cell-free, Sus scrofa; conditions: pig
[20] = Stability in mouse plasma assessed as half life; format: ADME, cell-free
[21] = Cmax in mouse at 400 mg/kg, ip; format: ADME, organism-based; parameters: dose 400 mg/kg, route ip; conditions: in vivo
[22] = biological target: T2, Histone deacetylase 8 (Homo sapiens, UniProt Q9BY41); assay: Inhibition of human HDAC8 incubated for 90 mins by fluorescence assay
T2 sequence (Q9BY41 whole entry): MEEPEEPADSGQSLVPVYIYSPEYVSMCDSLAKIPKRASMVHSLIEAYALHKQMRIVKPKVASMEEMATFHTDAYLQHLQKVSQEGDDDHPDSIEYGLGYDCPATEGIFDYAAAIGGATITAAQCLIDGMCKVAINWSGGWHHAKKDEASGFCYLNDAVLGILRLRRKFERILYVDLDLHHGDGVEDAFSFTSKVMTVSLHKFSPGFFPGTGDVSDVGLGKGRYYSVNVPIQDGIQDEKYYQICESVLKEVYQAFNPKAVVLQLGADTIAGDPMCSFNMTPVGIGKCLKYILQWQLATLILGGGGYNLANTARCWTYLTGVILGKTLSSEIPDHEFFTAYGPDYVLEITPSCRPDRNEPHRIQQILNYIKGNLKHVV

[23] = biological target: T3, Histone deacetylase 1 (Homo sapiens, UniProt Q13547); assay: Inhibition of human HDAC1
[24] = biological target: T1, Protein deacetylase HDAC6; assay: Inhibition of human HDAC6
[25] = biological target: T3, Histone deacetylase 1; assay: Inhibition of human HDAC1 using FAM-labeled acetylated peptide as substrate incubated for 17 hrs by fluorescence based assay
[26] = biological target: Histone deacetylase 3 (Homo sapiens, UniProt O15379); assay: Inhibition of human HDAC3 using FAM-labeled acetylated peptide as substrate incubated for 17 hrs by fluorescence based assay
[27] = biological target: T4, Polyamine deacetylase HDAC10 (Homo sapiens, UniProt Q969S8); assay: Inhibition of human HDAC10 using FAM-labeled acetylated peptide as substrate incubated for 17 hrs by fluorescence based assay
T4 sequence (Q969S8 whole entry): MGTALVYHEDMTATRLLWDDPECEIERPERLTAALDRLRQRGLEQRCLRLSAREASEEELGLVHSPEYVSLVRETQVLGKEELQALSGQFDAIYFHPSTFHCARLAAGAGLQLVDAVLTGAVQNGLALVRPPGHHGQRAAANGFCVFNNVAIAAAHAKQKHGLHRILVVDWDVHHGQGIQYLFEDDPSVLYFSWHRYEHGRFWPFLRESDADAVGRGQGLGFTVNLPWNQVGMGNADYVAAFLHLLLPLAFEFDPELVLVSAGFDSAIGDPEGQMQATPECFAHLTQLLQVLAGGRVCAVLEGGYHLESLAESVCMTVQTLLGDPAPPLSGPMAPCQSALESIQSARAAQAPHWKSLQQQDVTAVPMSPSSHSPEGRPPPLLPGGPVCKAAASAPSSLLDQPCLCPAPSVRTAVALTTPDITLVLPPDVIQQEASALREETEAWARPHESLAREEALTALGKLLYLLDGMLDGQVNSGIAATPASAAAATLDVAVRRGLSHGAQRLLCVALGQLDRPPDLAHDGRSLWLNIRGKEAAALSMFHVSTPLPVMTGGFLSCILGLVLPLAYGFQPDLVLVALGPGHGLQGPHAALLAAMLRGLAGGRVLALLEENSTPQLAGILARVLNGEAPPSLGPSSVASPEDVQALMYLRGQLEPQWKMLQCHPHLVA

[28] = biological target: Histone deacetylase 2 (Homo sapiens, UniProt Q92769); assay: Inhibition of human HDAC2 using FAM-labeled acetylated peptide as substrate incubated for 17 hrs by fluorescence based assay
[29] = biological target: T2, Histone deacetylase 8; assay: Inhibition of human HDAC8 using FAM-labeled acetylated peptide as substrate incubated for 17 hrs by fluorescence based assay
[30] = biological target: T1, Protein deacetylase HDAC6; assay: Inhibition of human HDAC6 using FAM-labeled acetylated peptide as substrate incubated for 17 hrs by fluorescence based assay
[31] = biological target: T5, Histone deacetylase 11 (Homo sapiens, UniProt Q96DB2); assay: Inhibition of human recombinant HDAC11 incubated for 17 hrs
T5 sequence (Q96DB2 whole entry): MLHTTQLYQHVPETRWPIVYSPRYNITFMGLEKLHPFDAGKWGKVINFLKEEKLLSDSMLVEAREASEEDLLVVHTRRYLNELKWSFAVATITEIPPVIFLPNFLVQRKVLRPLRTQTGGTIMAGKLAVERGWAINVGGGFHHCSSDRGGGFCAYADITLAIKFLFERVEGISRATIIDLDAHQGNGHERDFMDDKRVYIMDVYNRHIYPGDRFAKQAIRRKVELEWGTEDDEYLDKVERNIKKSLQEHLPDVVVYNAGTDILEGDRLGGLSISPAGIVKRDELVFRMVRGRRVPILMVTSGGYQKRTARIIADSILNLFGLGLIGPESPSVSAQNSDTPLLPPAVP

[32] = biological target: Histone deacetylase 4 (Homo sapiens, UniProt P56524); assay: Inhibition of human recombinant HDAC4 incubated for 17 hrs
[33] = biological target: T6, Histone deacetylase 7 (Homo sapiens, UniProt Q8WUI4); assay: Inhibition of human recombinant HDAC7 incubated for 17 hrs
T6 sequence (Q8WUI4 whole entry): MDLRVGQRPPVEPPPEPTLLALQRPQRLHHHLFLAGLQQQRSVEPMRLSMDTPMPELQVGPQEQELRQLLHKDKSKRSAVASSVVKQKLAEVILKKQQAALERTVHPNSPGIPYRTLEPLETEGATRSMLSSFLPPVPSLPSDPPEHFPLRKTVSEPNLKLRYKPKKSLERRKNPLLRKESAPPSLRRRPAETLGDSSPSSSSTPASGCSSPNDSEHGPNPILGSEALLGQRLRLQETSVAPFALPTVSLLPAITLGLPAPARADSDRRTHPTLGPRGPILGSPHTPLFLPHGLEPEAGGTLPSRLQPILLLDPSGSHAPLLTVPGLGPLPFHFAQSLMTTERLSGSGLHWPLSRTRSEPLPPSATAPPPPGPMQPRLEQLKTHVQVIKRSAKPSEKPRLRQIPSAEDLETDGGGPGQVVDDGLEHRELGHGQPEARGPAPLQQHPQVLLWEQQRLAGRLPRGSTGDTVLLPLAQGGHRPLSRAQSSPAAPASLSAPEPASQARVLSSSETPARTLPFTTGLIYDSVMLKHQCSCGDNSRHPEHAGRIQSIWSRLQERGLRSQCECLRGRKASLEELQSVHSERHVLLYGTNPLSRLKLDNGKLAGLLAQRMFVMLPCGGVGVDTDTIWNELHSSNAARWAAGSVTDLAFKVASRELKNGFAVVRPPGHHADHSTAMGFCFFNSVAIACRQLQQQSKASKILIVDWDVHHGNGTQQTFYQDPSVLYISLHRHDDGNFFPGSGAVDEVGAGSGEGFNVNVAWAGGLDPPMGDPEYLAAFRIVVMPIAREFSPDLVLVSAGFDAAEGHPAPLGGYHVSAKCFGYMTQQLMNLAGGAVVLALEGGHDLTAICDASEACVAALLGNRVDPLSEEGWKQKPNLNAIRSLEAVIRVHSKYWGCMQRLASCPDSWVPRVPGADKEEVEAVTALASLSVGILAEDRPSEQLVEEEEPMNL

T3 sequence (Q13547 whole entry): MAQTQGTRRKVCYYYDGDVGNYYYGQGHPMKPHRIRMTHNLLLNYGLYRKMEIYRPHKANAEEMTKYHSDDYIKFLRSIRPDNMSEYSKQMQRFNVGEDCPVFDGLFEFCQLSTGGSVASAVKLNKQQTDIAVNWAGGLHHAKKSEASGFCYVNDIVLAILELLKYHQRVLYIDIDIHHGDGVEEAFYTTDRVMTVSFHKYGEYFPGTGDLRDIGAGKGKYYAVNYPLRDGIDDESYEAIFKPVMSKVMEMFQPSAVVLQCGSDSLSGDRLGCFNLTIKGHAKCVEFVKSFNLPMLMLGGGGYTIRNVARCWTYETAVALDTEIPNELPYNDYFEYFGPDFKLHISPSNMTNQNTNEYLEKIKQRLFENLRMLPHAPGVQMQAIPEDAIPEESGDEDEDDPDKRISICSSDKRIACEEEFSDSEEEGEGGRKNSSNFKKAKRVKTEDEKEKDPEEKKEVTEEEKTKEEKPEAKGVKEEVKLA
Sequence of Histone deacetylase 3 (O15379 whole entry): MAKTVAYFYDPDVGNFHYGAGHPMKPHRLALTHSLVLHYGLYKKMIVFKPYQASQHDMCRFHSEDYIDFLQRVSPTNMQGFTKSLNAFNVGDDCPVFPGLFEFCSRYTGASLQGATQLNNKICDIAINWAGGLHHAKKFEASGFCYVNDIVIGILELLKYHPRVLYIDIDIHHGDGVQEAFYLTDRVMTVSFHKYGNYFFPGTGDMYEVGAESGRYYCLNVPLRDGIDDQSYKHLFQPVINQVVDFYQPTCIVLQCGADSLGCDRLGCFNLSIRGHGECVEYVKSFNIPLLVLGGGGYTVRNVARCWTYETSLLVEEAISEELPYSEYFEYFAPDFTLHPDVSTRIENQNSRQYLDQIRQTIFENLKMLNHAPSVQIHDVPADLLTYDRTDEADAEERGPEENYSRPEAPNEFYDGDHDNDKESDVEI
Sequence of Histone deacetylase 2 (Q92769 whole entry): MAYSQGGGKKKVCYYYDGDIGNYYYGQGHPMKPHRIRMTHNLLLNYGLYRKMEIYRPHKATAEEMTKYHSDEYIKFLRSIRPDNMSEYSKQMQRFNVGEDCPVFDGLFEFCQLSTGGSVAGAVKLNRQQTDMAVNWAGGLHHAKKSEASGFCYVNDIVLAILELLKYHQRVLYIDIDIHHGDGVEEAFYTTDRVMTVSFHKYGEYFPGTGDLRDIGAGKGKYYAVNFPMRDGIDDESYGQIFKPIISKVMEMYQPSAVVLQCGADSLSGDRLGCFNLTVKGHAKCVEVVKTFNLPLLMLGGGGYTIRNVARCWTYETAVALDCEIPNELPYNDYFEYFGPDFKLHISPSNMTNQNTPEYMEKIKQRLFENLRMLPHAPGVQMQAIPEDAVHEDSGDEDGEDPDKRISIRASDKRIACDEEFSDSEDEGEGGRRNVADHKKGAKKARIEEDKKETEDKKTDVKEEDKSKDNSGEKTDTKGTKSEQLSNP
Sequence of Histone deacetylase 4 (P56524 whole entry): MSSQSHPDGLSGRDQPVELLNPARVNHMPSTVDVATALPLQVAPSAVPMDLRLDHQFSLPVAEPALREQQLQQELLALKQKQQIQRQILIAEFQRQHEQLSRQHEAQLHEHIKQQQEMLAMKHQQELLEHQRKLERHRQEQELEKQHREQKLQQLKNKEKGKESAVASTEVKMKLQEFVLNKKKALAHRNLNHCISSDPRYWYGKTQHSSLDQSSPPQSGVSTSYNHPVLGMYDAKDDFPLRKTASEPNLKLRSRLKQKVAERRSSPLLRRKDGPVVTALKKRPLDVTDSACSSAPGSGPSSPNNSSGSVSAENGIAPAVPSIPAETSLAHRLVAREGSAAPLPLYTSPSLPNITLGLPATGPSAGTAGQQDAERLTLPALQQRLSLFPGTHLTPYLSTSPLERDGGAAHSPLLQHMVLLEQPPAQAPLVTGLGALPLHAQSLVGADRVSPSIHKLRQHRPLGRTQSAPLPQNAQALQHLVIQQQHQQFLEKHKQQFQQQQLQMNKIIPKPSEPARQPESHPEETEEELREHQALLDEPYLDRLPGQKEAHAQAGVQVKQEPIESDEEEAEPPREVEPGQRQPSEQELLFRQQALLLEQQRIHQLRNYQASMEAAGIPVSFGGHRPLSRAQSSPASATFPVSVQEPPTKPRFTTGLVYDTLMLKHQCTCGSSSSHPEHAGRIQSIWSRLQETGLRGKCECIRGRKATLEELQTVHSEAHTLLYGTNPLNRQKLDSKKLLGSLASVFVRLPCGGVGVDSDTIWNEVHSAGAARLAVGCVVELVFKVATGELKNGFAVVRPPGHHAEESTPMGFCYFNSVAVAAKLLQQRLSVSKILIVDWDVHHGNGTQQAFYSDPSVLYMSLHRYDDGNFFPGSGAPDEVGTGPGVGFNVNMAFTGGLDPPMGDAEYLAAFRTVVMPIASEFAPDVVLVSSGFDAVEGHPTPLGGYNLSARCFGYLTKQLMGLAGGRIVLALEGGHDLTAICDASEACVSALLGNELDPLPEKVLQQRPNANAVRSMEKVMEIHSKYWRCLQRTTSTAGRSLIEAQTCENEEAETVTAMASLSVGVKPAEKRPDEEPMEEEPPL

half-life [1]: 2.2 h | solubility at 24 h [2]: 1000 µg/mL (≈ 3020 µM) | AUC [3]: 4.97 µM·h | IC50 [5]: 0.02 µM | Papp A→B [6]: 15 ×10⁻⁶ cm/s | half-life [7]: 1.1 h | half-life [8]: 1.53 h | Papp B→A [10]: 24.7 ×10⁻⁶ cm/s | CL/F [11]: 67.5 mL/min | Tmax [12]: 0.5 h | half-life [13]: 1.32 h | half-life [15]: 1.38 h | solubility at 24 h [16]: 150 µg/mL (≈ 453 µM) | logD [17]: 2.64 | half-life [18]: 1.2 h | half-life [19]: 1.15 h | half-life [20]: 0.967 h | Cmax [21]: 1810 nM
Structure (SMILES): O=C(CS)NCCCCCC(=O)Nc1cccc2cccnc12
Activity [4]: 20% | Activity [9]: 20% | Activity [14]: 20%

Structure (SMILES): O=C(CS)NCCCCCC(=O)Nc1ccccc1
IC50 [22]: 200 µM

IC50 [23]: 2.2 µM | IC50 [24]: 0.1 µM
Structure (SMILES): O=C(/C=C/c1ccccc1Cl)NO

Structure (SMILES): N[C@@H](Cc1c[nH]c2ccccc12)C(=O)Nc1ccccc1-c1ccc(NC(=O)CCCCCNC(=O)CS)cc1
IC50 [25]: 7.09 µM | IC50 [26]: 4.33 µM | IC50 [27]: > 30 µM | IC50 [28]: > 30 µM | IC50 [29]: 11.3 µM | IC50 [30]: 0.66 µM

IC50 [31]: 0.432 µM | IC50 [32]: > 30 µM | IC50 [33]: > 30 µM
Structure (SMILES): Nc1ccc(F)cc1NC(=O)c1ccc(CNC(=O)/C=C/c2cccnc2)cc1

Reference: ChEMBL document CHEMBL5226279, “Mercaptoacetamide: A promising zinc-binding group for the discovery of selective histone deacetylase 6 inhibitors” (Eur J Med Chem, 2021)
